The values below come from US11446287B2, “Compounds and methods for EP300 or CBP modulation and indications therefor” (Opna Immuno-Oncology SA, priority 2019, dated 2022).

The IC50 is the midpoint of a concentration-inhibition curve.

For the experiment, the target named is T1, Recombinant human EP300 containing the bromodomain (EP300-BD (1040-1161)) (Homo sapiens, UniProt Q09472).
T1 construct: Recombinant human EP300 bromodomain (EP300-BD (1040-1161)); made in house; host or cells: E. coli BL21-CodonPlus (DE3), modified pET vector
T1 sequence (Q09472 1040-1161): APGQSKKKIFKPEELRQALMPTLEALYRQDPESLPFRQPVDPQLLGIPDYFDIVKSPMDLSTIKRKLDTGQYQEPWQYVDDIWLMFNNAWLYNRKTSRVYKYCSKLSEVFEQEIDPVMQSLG
The experiment can be described thus: EP300 Alphascreen binding assay. Summed up:
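Displacement of a biotinylated acetyl-K56 histone H3 peptide from the N-His bromodomain construct (1040-1161) measured by AlphaScreen proximity, beads at 7.5 μg/ml final, read 60 min after addition. Protein, peptide and compound first incubated 1 h at room temperature, pH 7.5 HEPES buffer; IC50 by four-parameter logistic fit.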
In general terms: In Alpha technology, singlet oxygen from a donor bead excites a nearby acceptor bead.
For `CCOc1nc(C(=O)O)cc(C)c1-c1cn(C2CCOCC2)c2ncc(-c3c(C)noc3C)cc12` [P-0411, 5-(5-(3,5-dimethylisoxazol-4-yl)-1-(tetrahydro-2H-pyran-4-yl)-1H-pyrrolo[2,3-b]pyridin-3-yl)-6-ethoxy-4-methylpicolinic acid], the 50% inhibitory concentration (IC50) is 0.1 to 1000 nM. With `CCOc1nc(C(=O)O)cc(C)c1-c1cn(-c2ccc(F)cc2F)c2ncc(-c3c(C)noc3C)cc12` [P-0412, 5-(1-(2,4-difluorophenyl)-5-(3,5-dimethylisoxazol-4-yl)-1H-pyrrolo[2,3-b]pyridin-3-yl)-6-ethoxy-4-methylpicolinic acid], the IC50 was 0.1 to 1000 nM. `Cc1nnn(C)c1-c1cnc2c(c1)c(-c1ccc(C(=O)O)cc1OC1CC1)cn2C1CCOCC1` [P-0413, 3-cyclopropoxy-4-(5-(1,4-dimethyl-1H-1,2,3-triazol-5-yl)-1-(tetrahydro-2H-pyran-4-yl)-1H-pyrrolo[2,3-b]pyridin-3-yl)benzoic acid]: the half-maximal inhibitory concentration (IC50) lay within 0.1 to 1000 nM. For `CCOc1cc(C(=O)O)nc(OCC)c1-c1cn(-c2ccccc2F)c2ncc(-c3c(C)noc3C)cc12` [P-0414, 5-(5-(3,5-dimethylisoxazol-4-yl)-1-(2-fluorophenyl)-1H-pyrrolo[2,3-b]pyridin-3-yl)-4,6-diethoxypicolinic acid] the value was 0.1 to 1000 nM. To `CCOc1cc(C(=O)O)nc(OCC)c1-c1cn([C@@H](C)c2ccccn2)c2ncc(-c3c(C)noc3C)cc12` [P-0415, (S)-5-(5-(3,5-dimethylisoxazol-4-yl)-1-(1-(pyridin-2-yl)ethyl)-1H-pyrrolo[2,3-b]pyridin-3-yl)-4,6-diethoxypicolinic acid] belongs 0.1 to 1000 nM. Take `CCOc1nc(C(=O)O)c(C)cc1-c1cn(C(C2CC2)C2CC2)c2ncc(-c3c(C)noc3C)cc12` [P-0416, 5-(1-(dicyclopropylmethyl)-5-(3,5-dimethylisoxazol-4-yl)-1H-pyrrolo[2,3-b]pyridin-3-yl)-6-ethoxy-3-methylpicolinic acid]: the IC50 lay within 0.1 to 1000 nM. With `CCOc1nc(C(=O)O)cc(C)c1-c1cn(C(C2CC2)C2CC2)c2ncc(-c3c(C)noc3C)cc12` [P-0417, 5-(1-(dicyclopropylmethyl)-5-(3,5-dimethylisoxazol-4-yl)-1H-pyrrolo[2,3-b]pyridin-3-yl)-6-ethoxy-4-methylpicolinic acid], the half-inhibitory concentration (IC50) lay within 0.1 to 1000 nM.

Regarding `Cc1noc(C)c1-c1cnc2c(c1)c(-c1ccnc(C(=O)O)c1C)cn2C(C1CC1)C1CC1` [P-0418, 4-(1-(dicyclopropylmethyl)-5-(3,5-dimethylisoxazol-4-yl)-1H-pyrrolo[2,3-b]pyridin-3-yl)-3-methylpicolinic acid], the half-maximal inhibitory concentration (IC50) lay in the range of 0.1 to 1000 nM. For `Cc1noc(C)c1-c1cnc2c(c1)c(-c1ccnc(C(=O)O)c1C)cn2C1CCOCC1` [P-0419, 4-(5-(3,5-dimethylisoxazol-4-yl)-1-(tetrahydro-2H-pyran-4-yl)-1H-pyrrolo[2,3-b]pyridin-3-yl)-3-methylpicolinic acid] the value was 0.1 to 1000 nM. To `CCOc1cc(C(=O)O)nc(OCC)c1-c1cn(C(C2CC2)C2CC2)c2ncc(-c3c(C)noc3C)cc12` [P-0420, 5-(1-(dicyclopropylmethyl)-5-(3,5-dimethylisoxazol-4-yl)-1H-pyrrolo[2,3-b]pyridin-3-yl)-4,6-diethoxypicolinic acid] belongs 0.1 to 1000 nM. To `CCOc1cc(C(=O)O)nc(OCC)c1-c1cn(-c2ncccc2C#N)c2ncc(-c3c(C)noc3C)cc12` [P-0421, 5-(1-(3-cyanopyridin-2-yl)-5-(3,5-dimethylisoxazol-4-yl)-1H-pyrrolo[2,3-b]pyridin-3-yl)-4,6-diethoxypicolinic acid] belongs 0.1 to 1000 nM. Regarding `CCOc1cc(C(=O)O)nc(OCC)c1-c1cn(-c2ncccc2C(N)=O)c2ncc(-c3c(C)noc3C)cc12` [P-0422, 5-(1-(3-carbamoylpyridin-2-yl)-5-(3,5-dimethylisoxazol-4-yl)-1H-pyrrolo[2,3-b]pyridin-3-yl)-4,6-diethoxypicolinic acid], the 50% inhibitory concentration (IC50) was 0.1 to 1000 nM. In the case of `CCOc1cc(C(=O)O)nc(OCC)c1-c1cn(-c2ccc(C#N)cc2F)c2ncc(-c3c(C)noc3C)cc12` [P-0423, 5-(1-(4-cyano-2-fluorophenyl)-5-(3,5-dimethylisoxazol-4-yl)-1H-pyrrolo[2,3-b]pyridin-3-yl)-4,6-diethoxypicolinic acid], the IC50 was 0.1 to 1000 nM. Take `CCOc1cc(C(=O)O)nc(OCC)c1-c1cn(-c2cnc(C3CC3)nc2)c2ncc(-c3c(C)noc3C)cc12` [P-0424, 5-(1-(2-cyclopropylpyrimidin-5-yl)-5-(3,5-dimethylisoxazol-4-yl)-1H-pyrrolo[2,3-b]pyridin-3-yl)-4,6-diethoxypicolinic acid]: the 50% inhibitory concentration (IC50) fell in the range of 0.1 to 1000 nM. To `CCOc1cc(C(=O)O)nc(OCC)c1-c1cn(C2CCC(F)(F)CC2)c2ncc(-c3c(C)noc3C)cc12` [P-0425, 5-(1-(4,4-difluorocyclohexyl)-5-(3,5-dimethylisoxazol-4-yl)-1H-pyrrolo[2,3-b]pyridin-3-yl)-4,6-diethoxypicolinic acid] belongs 0.1 to 1000 nM. In the case of `CCOc1cc(C(=O)O)ncc1-c1cn(C(C2CC2)C2CC2)c2ncc(-c3c(C)noc3C)cc12` [P-0427, 5-(1-(dicyclopropylmethyl)-5-(3,5-dimethylisoxazol-4-yl)-1H-pyrrolo[2,3-b]pyridin-3-yl)-4-ethoxypicolinic acid], the IC50 was 0.1 to 1000 nM. For the compound `CCOc1cc(C(=O)O)ncc1-c1cn(C2CCOCC2)c2ncc(-c3c(C)noc3C)cc12` [P-0428, 5-(5-(3,5-dimethylisoxazol-4-yl)-1-(tetrahydro-2H-pyran-4-yl)-1H-pyrrolo[2,3-b]pyridin-3-yl)-4-ethoxypicolinic acid], the IC50 lay in the range of 0.1 to 1000 nM. To `CCOc1cc(C(=O)O)nc(OCC)c1-c1cn(-c2cn(C(F)F)nc2C)c2ncc(-c3c(C)noc3C)cc12` [P-0429, 5-(1-(1-(difluoromethyl)-3-methyl-1H-pyrazol-4-yl)-5-(3,5-dimethylisoxazol-4-yl)-1H-pyrrolo[2,3-b]pyridin-3-yl)-4,6-diethoxypicolinic acid] belongs 0.1 to 1000 nM; to `CCOc1cc(C(=O)O)nc(OCC)c1-c1cn(-c2cn(CC)nc2C)c2ncc(-c3c(C)noc3C)cc12` [P-0430, 5-(5-(3,5-dimethylisoxazol-4-yl)-1-(1-ethyl-3-methyl-1H-pyrazol-4-yl)-1H-pyrrolo[2,3-b]pyridin-3-yl)-4,6-diethoxypicolinic acid], 0.1 to 1000 nM; to `CCOc1cc(C(=O)O)nc(OCC)c1-n1cc(-c2ccc(F)cc2F)c2ncc(-c3c(C)noc3C)cc21` [P-0431, 5-(3-(2,4-difluorophenyl)-6-(3,5-dimethylisoxazol-4-yl)-1H-pyrrolo[3,2-b]pyridin-1-yl)-4,6-diethoxypicolinic acid], 0.1 to 1000 nM.

Take `CCOc1cc(C(=O)OC)nc(OCC)c1-c1cn(-c2ccc(F)cc2F)c2ncc(-c3c(C)noc3C)cc12` [P-0432, methyl 5-(1-(2,4-difluorophenyl)-5-(3,5-dimethylisoxazol-4-yl)-1H-pyrrolo[2,3-b]pyridin-3-yl)-4,6-diethoxypicolinate]: the half-inhibitory concentration (IC50) lay in the range of 0.1 to 1000 nM. In the case of `CCOc1cc(C(=O)O)nc(OCC)c1-c1cn(C2CCN(C(=O)OC(C)(C)C)CC2)c2ncc(-c3c(C)noc3C)cc12` [P-0433, 5-(1-(1-(tert-butoxycarbonyl)piperidin-4-yl)-5-(3,5-dimethylisoxazol-4-yl)-1H-pyrrolo[2,3-b]pyridin-3-yl)-4,6-diethoxypicolinic acid], the IC50 was in the range of 0.1 to 1000 nM. For `Cc1noc(C)c1-c1cnc2c(c1)c(C1CCC(C(=O)O)CC1)cn2-c1ccc(F)cc1F` (centres unmarked) [P-0434, 4-(1-(2,4-difluorophenyl)-5-(3,5-dimethylisoxazol-4-yl)-1H-pyrrolo[2,3-b]pyridin-3-yl)cyclohexane-1-carboxylic acid] the value was 0.1 to 1000 nM; for `CCOc1cc(C(=O)O)nc(OCC)c1-c1cn(C2CCN(S(C)(=O)=O)CC2)c2ncc(-c3c(C)noc3C)cc12` [P-0435, 5-(5-(3,5-dimethylisoxazol-4-yl)-1-(1-(methylsulfonyl)piperidin-4-yl)-1H-pyrrolo[2,3-b]pyridin-3-yl)-4,6-diethoxypicolinic acid], 0.1 to 1000 nM. As to `CCOc1cc(C(=O)O)nc(OCC)c1-c1cn(-c2cccnc2)c2ncc(-c3c(C)noc3C)cc12` [P-0436, 5-(5-(3,5-dimethylisoxazol-4-yl)-1-(pyridin-3-yl)-1H-pyrrolo[2,3-b]pyridin-3-yl)-4,6-diethoxypicolinic acid], the IC50 was in the range of 0.1 to 1000 nM. For `Cc1noc(C)c1-c1cnc2c(c1)c(-c1ccc(CC(=O)O)cc1F)cn2-c1ccc(F)cc1F` [P-0437] the value was 0.1 to 1000 nM; for `Cc1noc(C)c1-c1cnc2c(c1)c(-c1ccc(CC(=O)O)cc1)cn2-c1ccc(F)cc1F` [P-0438, 2-(4-(1-(2,4-difluorophenyl)-5-(3,5-dimethylisoxazol-4-yl)-1H-pyrrolo[2,3-b]pyridin-3-yl)phenyl)acetic acid], 0.1 to 1000 nM. For the compound `Cc1noc(C)c1-c1cnc2c(c1)c(-c1c(Cl)cc(C(=O)O)cc1OC(F)(F)F)cn2-c1cccnn1` [P-0439, 3-chloro-4-(5-(3,5-dimethylisoxazol-4-yl)-1-(pyridazin-3-yl)-1H-pyrrolo[2,3-b]pyridin-3-yl)-5-(trifluoromethoxy)benzoic acid], the IC50 is 0.1 to 1000 nM. To `COC(=O)c1cc(Cl)c(-c2cn(-c3ccc(C4CC4)nc3)c3ncc(-c4c(C)noc4C)cc23)c(OC(F)(F)F)c1` [P-0440, methyl 3-chloro-4-(1-(6-cyclopropylpyridin-3-yl)-5-(3,5-dimethylisoxazol-4-yl)-1H-pyrrolo[2,3-b]pyridin-3-yl)-5-(trifluoromethoxy)benzoate] belongs 1000 to 8000 nM.
